Reference: patent EP0104041B1, “Enzyme inhibitors” (priority 1982, dated 1984)
Non-standard residues stand in square brackets, D forms with d. Residues, ends and D or L forms follow the SMILES beside them. Sta = CC(C)C[C@H](N)[C@@H](O)CC(=O)O

Experiments:
baboon renin = test: renin inhibition, baboon renin; format: biochemical; conditions: against baboon renin; preliminary results
Excerpt: (§1) This compound is the subject of Example 1 below.

human renin = target: T1, human renin (Homo sapiens, UniProt P00797); test: renin inhibition, methods of the applicants' published European specification (0 045 665); format: biochemical; conditions: against human renin
T1 sequence (P00797 67-406): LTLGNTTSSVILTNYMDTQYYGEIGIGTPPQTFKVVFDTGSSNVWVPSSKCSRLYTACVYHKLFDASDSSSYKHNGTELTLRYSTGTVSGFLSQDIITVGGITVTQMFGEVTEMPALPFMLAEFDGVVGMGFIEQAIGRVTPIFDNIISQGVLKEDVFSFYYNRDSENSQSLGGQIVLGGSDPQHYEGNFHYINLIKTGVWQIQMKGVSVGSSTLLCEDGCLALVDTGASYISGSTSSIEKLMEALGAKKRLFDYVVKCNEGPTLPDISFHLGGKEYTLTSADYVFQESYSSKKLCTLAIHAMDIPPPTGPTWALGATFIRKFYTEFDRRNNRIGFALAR
Excerpt: as §1

Row | IC50 (baboon renin) [nM] | IC50 (human renin; preliminary results) [nM] | IC50 (human renin) [nM] | SMILES
1 | 12 | 9 |  | CC[C@H](C)[C@H](NC(=O)[C@@H](NC(=O)C[C@H](O)[C@H](CC(C)C)NC(=O)[C@H](Cc1c[nH]cn1)NC(=O)[C@H](Cc1ccccc1)NC(=O)[C@@H]1CCCN1C(=O)[C@H](Cc1c[nH]cn1)NC(=O)[C@@H]1CCCN1)C(C)C)C(=O)N[C@@H](Cc1c[nH]cn1)C(=O)N[C@@H](CCCCN)C(=O)O [Example H-189] (H-PHPFH[Sta]VIHK-OH)
2 |  |  | 16 | CC[C@H](C)[C@H](NC(=O)[C@@H](NC(=O)C[C@H](O)[C@H](CC(C)C)NC(=O)[C@H](Cc1c[nH]cn1)NC(=O)[C@H](Cc1ccccc1)NC(=O)[C@@H]1CCCN1C(=O)[C@@H](N)Cc1c[nH]cn1)C(C)C)C(=O)N[C@@H](Cc1c[nH]cn1)C(=O)O [Example 1] (H-HPFH[Sta]VIH-OH)
